From ChEMBL document CHEMBL1158918, “Novel marine sponge amino acids, 10. Xestoaminols from Xestospongia sp” (1990)

Columns and labels:
[1] = Inhibition of reverse transcriptase at 1 mg/ml; set-up: scale not given: the % may be the effect or the level left
[2] = system: Streptococcus pyogenes; assay: Antimicrobial activity against Streptococcus pyogenes at 10 ug/disk; format: functional, organism-based
[3] = system: Staphylococcus aureus; assay: Antimicrobial activity against Staphylococcus aureus at 100 ug/disk; format: functional; details: read-out: IZ
[4] = system: Nippostrongylus brasiliensis; assay: Antihelminthic activity against Nippostrongylus brasiliensis 4 instar larvae assessed as reduction in cast formation at 50 ug/mL; format: functional; set-up: scale not given: the % may be the effect or the level left
[5] = system: Nippostrongylus brasiliensis; assay: Antihelminthic activity against Nippostrongylus brasiliensis 4 instar larvae assessed as reduction in motility at 50 ug/mL; format: functional; set-up: scale not given: the % may be the effect or the level left
[6] = system: Candida albicans; assay: Antimicrobial activity against Candida albicans at 100 ug/disk; format: functional; details: read-out: IZ
[7] = system: Escherichia coli; assay: Antimicrobial activity against Escherichia coli at 100 ug/disk; format: functional; details: read-out: IZ
[8] = system: Streptococcus pyogenes; assay: Antimicrobial activity against Streptococcus pyogenes at 100 ug/disk; format: functional; details: read-out: IZ
[9] = system: Trichophyton mentagrophytes; assay: Antimicrobial activity against Trichophyton mentagrophytes at 100 ug/disk; format: functional; details: read-out: IZ
[10] = system: Nippostrongylus brasiliensis; assay: Antihelminthic activity against Nippostrongylus brasiliensis 4 instar larvae assessed as reduction in viability at 50 ug/mL; format: functional
[11] = system: Trichophyton mentagrophytes; assay: Antimicrobial activity against Trichophyton mentagrophytes at 10 ug/disk; format: functional; details: read-out: IZ
[12] = system: Candida albicans; assay: Antimicrobial activity against Candida albicans at 10 ug/disk; details: read-out: IZ

In the case of `CCCCCCCCCCC[C@@H](O)[C@H](C)N` (relative stereo), the Activity [1] is reported as 95%.
With GENTAMICIN the inhibition zone (IZ) [2] was 10 mm.
Work on `CC/C=C/CCCCCCC[C@@H](O)[C@H](C)N` (relative stereo) [XETOAMINOL A] yielded a zone of inhibition at 100 µg/disc [3] of 3 mm, an Activity [4] of 90% and an Activity [1] of 97%. For the same compound, the Activity [5] was 100%, the zone of inhibition at 100 µg/disc [6] was 7 mm and the zone of inhibition at 100 µg/disc [7] was 7 mm. For the same compound, the zone of inhibition at 100 µg/disc [8] was 4 mm, the zone of inhibition at 100 µg/disc [9] was 13 mm and the Activity [10] was 100%.
For `Clc1ccc(COC(Cn2ccnc2)c2ccc(Cl)cc2Cl)c(Cl)c1` (stereo not drawn) [MICONAZOLE], the zone of inhibition at 10 µg/disc [11] was 11 mm and the zone of inhibition at 10 µg/disc [12] was 10 mm.
